# According to US7718651B2, “Inhibitors of FtsZ and uses thereof” (priority 2002, dated 2010):
# “And” between values parts separate entries of the source, which are not always exact repeats. Equal entries are not always repeated. “Also recorded” adds a separate entry of the source. Where two headings read alike, the source gives them in different places.
# Legend:
# [1] = system: M. tuberculosis H37Rv; assay: MIC99 determination, BACTEC 460 radiometric system; type: cell-based; settings: Mycobacterium tuberculosis; for MIC99: M. tuberculosis H37Rv
# [2] = target: T1, M. tuberculosis FtsZ (Mycobacterium tuberculosis, UniProt P9WN95); assay: biochemical; settings: read-out: FtsZ polymerization ID50
# [3] = system: E. faecalis; assay: Microdilution broth MIC, E. faecalis; type: cell-based
# [4] = target: T1, M. tuberculosis FtsZ; assay: biochemical; settings: 100 μM compound, Table 6; read-out: M. tuberculosis FtsZ GTP Hydrolysis % Inhibition (100 μM)
# [5] = system: panel of Gram positive rods and cocci; assay: Microdilution broth MIC against a panel of bacteria; type: cell-based
# [6] = system: Staphylococcus aureus; assay: Microdilution broth MIC, Staphylococcus aureus; type: cell-based
# [7] = system: E. faecium; assay: Microdilution broth MIC, E. faecium; type: cell-based; settings: Enterococcus faecium; E. faecium SRI 1421, Vancomycin resistant
# [8] = system: Vero cells; assay: Cytotoxicity in Vero cells (MTS assay); type: cell-based; settings: Chlorocebus sabaeus, Vero cells
# [9] = system: S. epidermidis; assay: Microdilution broth MIC, S. epidermidis; type: cell-based; settings: Staphylococcus epidermidis; S. epidermidis SRI 1296, Trimethoprim resistant
# [10] = system: Mycobacterium bovis (BCG); type: cell-based
# [11] = system: Enterococcus hirae; assay: Microdilution broth MIC, Enterococcus hirae; type: cell-based; settings: Enterococcus hirae SRI 76, Wild type
# [12] = system: Escherichia coli; assay: Microdilution broth MIC, Escherichia coli; type: cell-based
# [13] = system: bovine tubulin; assay: Light scattering assay for tubulin polymerization; type: biochemical
# [14] = system: M. tuberculosis Erdman; assay: Activity in M. tuberculosis-infected mouse bone marrow macrophages; type: cell-based; settings: for EC90: Mycobacterium tuberculosis, ERDMAN, Bone marrow macrophage, 168 h
# Procedure: Toxicity was determined by visual inspection.
# [15] = system: M. tuberculosis H37Ra; assay: MIC/MBC, colorimetric (alamar blue) microdilution broth assay; type: cell-based; settings: for log reduction in cfu/mL: H37Ra
# [16] = system: Bacillus subtilis; assay: Microdilution broth MIC, Bacillus subtilis; type: cell-based; settings: Bacillus subtilis SRI 1032, Wild type
# [17] = system: Salmonella typhimurium; assay: Microdilution broth MIC, Salmonella typhimurium; type: cell-based
# [18] = system: M. tuberculosis H37Rv; assay: microbe, parasite or virus in culture; type: cell-based
# T1 sequence (P9WN95 whole entry, looked up): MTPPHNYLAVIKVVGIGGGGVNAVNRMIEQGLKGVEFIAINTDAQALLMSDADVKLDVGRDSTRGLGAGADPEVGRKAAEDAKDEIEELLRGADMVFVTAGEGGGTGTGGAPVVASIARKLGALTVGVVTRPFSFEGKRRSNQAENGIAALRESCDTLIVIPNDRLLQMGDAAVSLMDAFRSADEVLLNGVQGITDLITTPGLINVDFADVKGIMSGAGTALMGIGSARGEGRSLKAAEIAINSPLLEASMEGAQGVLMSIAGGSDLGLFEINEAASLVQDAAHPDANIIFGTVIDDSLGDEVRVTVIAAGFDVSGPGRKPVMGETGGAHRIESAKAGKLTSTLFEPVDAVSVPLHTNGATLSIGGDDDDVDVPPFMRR
smiles,measurement,setting,value
"CCOC(=O)Nc1cc(NC(C)CCCN(CC)CC)c2nc(-c3ccccc3)c(-c3ccccc3)nc2n1 (stereo not drawn) [SRI-3072, [8-(4-Diethylamino-1-methyl-butylamino)-2,3-diphenyl-pyrido[2,3-b]pyrazin-6-yl]-carbamic acid ethyl ester]",MIC,"[1]; H37RV, MIC referred to for dosing of the macrophage assay, strain not stated, read-out: MIC",0.2 µg/mL
same,MIC99,"[1]; Table 3, read-out: Screen 2 MIC99",0.15 µg/mL
same,MIC99,[1]; read-out: MIC99,0.15 µg/mL and 0.28 µM
same,MIC,"[1]; wildtype (H37Rv), Table 5, read-out: MIC, WT",0.2 µg/mL
same,IC50,[2],52 ± 12 µM
same,MIC,"[3]; E. faecalis SRl 1295, Wild type",64 µg/mL
same,MIC,"[3]; Enterococcus faecalis, E. faecalis SM 1414, Vancomycin resistant, read-out: MIC",64 µg/mL
same,inhibition at 100 µM,[4],20%
same,MIC,"[5]; Bacillus subtilis, read-out: MICs against expanded panel of Gram positive rods and cocci",32 to 64 µg/mL
same,"activity against several Gram-positive bacteria, including drug resistant strains",[5]; in words,moderate activity
same,MIC,"[6]; S. aureus SRI 1186, Wild type",32 µg/mL
same,MIC,"[6]; S. aureus SRI 1279, Methicillin resistant",64 µg/mL
same,MIC,"[6]; S. aureus SRI 1343, Multi-drug resistant",64 µg/mL
same,MIC,"[6]; Staphylocococcus aureus SRI 1323, Wild type",32 µg/mL
same,MIC,[6]; strain not named,32 µg/mL
same,MIC,[7],32 µg/mL
same,IC50,"[8]; 72 h, 72 h exposure, Table 3, read-out: IC50",6.3 µg/mL
same,IC50,[8]; read-out: IC50,6.3 µg/mL
same,MIC,[9],32 µg/mL
same,cell length / morphology,[10],much longer and branched
same,recovery after washing to remove drug,[10]; BCG cultured cells,do not recover
same,MIC,[11],32 µg/mL
same,MIC,"[12]; Escherichia coli SRI 1218, Wild type",> 64 µg/mL
same,activity against E. coli,[12]; in words,not active
same,inhibition of tubulin polymerization,"[13]; in words, 100 μM",no inhibition of tubulin was seen; also recorded: no effect
same,Bovine Brain Tubulin Polymerization ID50,"[13]; tubulin 20 μM, 1 mM GTP, Table 6",no inhibition (100 μM)
same,EC90,"[14]; after seven days, read-out: EC90",0.12 µg/mL
same,EC90,"[14]; after seven days, read-out: EC90 (90% reduction in mycobacterial growth)",0.23 µM
same,EC99,[14]; after seven days,1.42 µg/mL
same,EC99 (99% reduction in mycobacterial growth),[14]; after seven days,2.7 µM
same,growth of M. tuberculosis in infected mouse bone marrow macrophages,[14]; in words,inhibit the growth
same,log reduction in cfu/mL,"[15]; 0.95 μM drug, six days",0.98±0.11
same,log reduction in cfu/mL,"[15]; 1.9 μM drug, six days",1.7±0.06
same,log reduction in cfu/mL,"[15]; 3.8 μM drug, six days",2.0±0.12
same,MBC,"[15]; Mycobacterium tuberculosis, H37RA, 144 h, M. tuberculosis H37Ra, six days",1 µg/mL to 2 µg/mL and 1.9 µM to 3.8 µM
same,MIC,"[15]; Mycobacterium tuberculosis, H37RA, M. tuberculosis H37Ra, FIG. 2 legend",250 µg/mL
same,MIC,"[15]; Mycobacterium tuberculosis, H37RA, M. tuberculosis H37Ra, read-out: MIC",0.25 µg/mL and 0.47 µM
same,MIC,[16],16 µg/mL
same,MIC,"[17]; Salmonella enterica, TYPHIMURIUM",64 µg/mL
same,activity against S. typhimurium deep rough (rfa) mutant,[17]; in words,active
same,inhibition of growth at 12.5 µg/mL,"[18]; Mycobacterium tuberculosis, M. tuberculosis H37Rv, at 12.5% μg/ml (so in the source), read-out: Primary Screen PI (% inhibition of growth)",100%
same,activity against M. tuberculosis H37Rv in the primary screen,[18]; in words,demonstrated activity
